Results: patent US20240075033A1, “ALK5 INHIBITORS FOR TREATING MYELODYSPLASTIC SYNDROME” (Sumitomo Pharma Oncology, Inc., priority 2019, published 2024)
Where a name gives a salt, the structure may show the parent alone. Read-outs that look alike come from different tables or passages of the source.

Experiments:
[1] = Hygroscopicity (DVS tests); assay type: physicochemical; details: for Hygroscopicity (%): water uptake at 25° C./80% RH
[2] = Solid-state stability under 40° C./75% RH for one week; assay type: physicochemical
[3] = Kinetic solubility in pH 2, 5, and 7 buffers; assay type: physicochemical; details: for Kinetic Solubility: in pH 2, 5 and 7 buffers, compared with freebase Form A
ALK5 [4] = molecular target: T1, ALK5 (Homo sapiens, UniProt P36897); test: Rhabdomyosarcoma (RD) cell SMAD reporter (RDSR) assay; assay type: cell-based; design: The RD cell line was transfected with the pGL4.48(luc2P/SBE/Hygro) vector; endogenous in cells; host or cells: RD rhabdomyosarcoma cells stably transfected with the SBE-luciferase reporter only; details: RD cells transfected with pGL4.48(luc2P/SBE/Hygro) vector, pretreated with drug, induced with 50 pg/mL TGFβ1 for up to 24 hours; structure (I) tested as HCl salt
T1 sequence (P36897 34-503): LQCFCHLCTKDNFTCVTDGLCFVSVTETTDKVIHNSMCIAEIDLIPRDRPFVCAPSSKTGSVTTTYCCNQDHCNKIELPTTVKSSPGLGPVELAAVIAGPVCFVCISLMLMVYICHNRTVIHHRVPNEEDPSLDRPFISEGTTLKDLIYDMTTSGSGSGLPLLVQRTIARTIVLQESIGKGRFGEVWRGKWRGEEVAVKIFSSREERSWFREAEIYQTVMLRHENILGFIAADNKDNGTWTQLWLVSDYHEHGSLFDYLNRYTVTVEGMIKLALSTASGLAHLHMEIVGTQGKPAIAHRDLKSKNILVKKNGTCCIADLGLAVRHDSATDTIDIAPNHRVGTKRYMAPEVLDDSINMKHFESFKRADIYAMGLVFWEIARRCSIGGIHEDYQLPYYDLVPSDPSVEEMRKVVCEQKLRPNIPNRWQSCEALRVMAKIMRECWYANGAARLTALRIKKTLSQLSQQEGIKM

ALK5 [5] = molecular target: T1, ALK5; test: ALK5 nanobret assay in HEK293 cells transfected with ALK5-Nanoluc fusion; assay type: binding; details: luciferase tagged ALK5, fluorescent tracer competition (BRET), structure (I) tested as HCl salt
Procedure: An HCl salt of the compound of structure (I) was tested in an ALK5 nanobret assay. HEK293 cells were transfected with the ALK5-Nanoluc fusion (Promega) vector, which encodes for a luciferase tagged form of ALK5. For testing of the compound of structure (I), transfected cells were pretreated with drug. Subsequently, a fluorescent tracer was added and the fluorescence signal was measured.
In this assay, luminescence develops via the nanoluciferase tagged ALK5, which can transfer signal via bioluminescence energy transfer (BRET) to the tracer, yielding a fluorescent signal.

COc1cc(Nc2nccc(Nc3cccnc3-c3ccccn3)n2)ccc1N1CCN(C)CC1 [Freebase Form A]
form change after DVS tests [1]: no form change
Hygroscopicity (%) [1]: (0.60) %
Solid-state Stability [2]: Good physicochemical properties under

COc1cc(Nc2nccc(Nc3cccnc3-c3ccccn3)n2)ccc1N1CCN(C)CC1 [HCl Salt Form A]
form change after DVS tests [1]: no form change
Hygroscopicity ([1]; class based on water uptake at 25° C./80% RH): Slightly hygroscopic
Hygroscopicity (%) [1]: (0.86) %
Solid-state Stability [2]: Good physicochemical properties under
Solid-state Stability ([2]; listed as HCl salt Form A): good physicochemical properties
Kinetic Solubility [3]: increased solubility
Kinetic Solubility ([3]; listed as HCl Form A): HCl Form A showed increased solubility
disproportionation ([3]; pH 7 buffer): disproportionation was observed

COc1cc(Nc2nccc(Nc3cccnc3-c3ccccn3)n2)ccc1N1CCN(C)CC1 [compound of structure (I)]
IC50 (ALK5 [4]): 309 nM
IC50 (ALK5 [5]): 2300 nM
